The subject of experiment [1] is Staphylococcus epidermidis. The class given is cell-based. The note with it: 24 h. How it is done: (§1) The minimal inhibitory concentrations (MICs) of the peptides were determined following the broth microdilution method recommended by the Clinical and Laboratory Standards Institute (CLSI). Briefly, bacteria in their mid-logarithmic growth phase were diluted in Mueller–Hinton broth (MHB) (Difco, Franklin Lakes, NJ, USA) and aliquoted into a 96-well microtiter plate at a density of 4 × 10^6 CFU/well. The assay included both Gram-negative bacteria (Escherichia coli, Salmonella typhimurium, and Pseudomonas aeruginosa) and Gram-positive bacteria (Bacillus subtilis, Staphylococcus aureus, and Staphylococcus epidermidis), as well as methicillin-resistant Staphylococcus aureus strains (MRSA: CCARM 3089, CCARM 3090, CCARM 3095). The samples were subjected to a two-fold serial dilution before being added to the wells, and the plate was incubated at 37 °C for 24 h. The MIC was defined as the lowest peptide concentration that prevented visible bacterial growth. All experiments were conducted in triplicate and included appropriate growth and sterility controls.

The test system of the next experiment is Escherichia coli. Format: cell-based. To be noted: 24 h. The protocol: as §1
The subject of a further experiment is Bacillus subtilis. The class given is cell-based. The note with it: 24 h. The protocol:
as §1

Another experiment concerns Pseudomonas aeruginosa. The class given is cell-based. To be noted: 24 h. How it is done: as §1
A further experiment relates to Salmonella typhimurium. The class given is cell-based. The note with it: murium, 24 h. How it is done:
as §1

The subject of a further experiment is bacterial strains. Format: cell-based. To be noted: strain not given; see Tables 1 and 2. How it is done: as §1
The subject of the next experiment is Staphylococcus aureus. The class given is cell-based. To be noted: 24 h. How it is done: as §1
In the next experiment the test system is E. coli ML-35. The experiment is described as follows: ONPG hydrolysis assay (inner membrane permeability). The class given is cell-based, Escherichia coli. To be noted: 32 µM F2, 4 µM melittin, 16 µM buforin-2, Figure 4. How it is done:
The internal membrane permeability was assessed using the ONPG hydrolysis assay, as described previously. E. coli ML-35p, which constitutively expresses cytoplasmic β-galactosidase and periplasmic β-lactamase, is resistant to ampicillin and deficient in lactose permease. E. coli ML-35 was incubated in LB broth containing ampicillin at 37 °C until the optical density (O.D.) at 600 nm reached 1.0. The cells were then washed with a buffer consisting of 97% 1× PBS and 3% LB and diluted to an O.D. 600 of 0.4 in the same buffer. A mixture of 50 μL of serially diluted peptide and 20 μL of dye (ONPG, final concentration 3 mM) was added to 100 μL of the bacterial suspension in a sterilized 96-well plate. Melittin served as a positive control, while buforin-2 was used as a negative control. The hydrolysis of ONPG was measured using a PHOMO Elisa reader (Autobio, Zhengzhou, China) at 405 nm for each time period.

The subject of the next experiment is MRSA CCARM 3095. Format: cell-based, methicillin-resistant Staphylococcus aureus. The note with it: CCARM 3095, 24 h. The protocol: as §1
In a further experiment the test system is MRSA CCARM 3089. The class given is cell-based, methicillin-resistant Staphylococcus aureus. The note with it: CCARM 3089, 24 h. The protocol:
as §1

The test system of the next experiment is MRSA CCARM 3090. The class given is cell-based, methicillin-resistant Staphylococcus aureus. To be noted: CCARM 3090, 24 h. The protocol: as §1
For another experiment, the system named is S. aureus cell membranes. The experiment is described as follows: SYTOX Green uptake assay. Format: cell-based, Staphylococcus aureus. The note with it: 32 µM F2, 4 µM melittin, 16 µM buforin-2, Figure 3. How it is done:
The membrane permeabilization activity of the peptides was determined using the SYTOX Green uptake assay, as described previously. S. aureus was cultured in LB broth at 37 °C until it reached an optical density (O.D.) at 600 nm of 0.4, indicative of the mid-logarithmic phase. The cells were then washed and diluted to an O.D. 600 of 0.05 using 1× PBS buffer. The dye (SYTOX Green nucleic acid stain) was added to the bacterial suspension at a concentration of […], and the mixture was incubated at 4 °C for 18 h with agitation in the dark. The SYTOX Green-treated bacteria were placed in a quartz cell, where they were simultaneously exposed to the positive control melittin (2× MIC), the negative control buforin-2 (2× MIC), and the F2 dimer (2× MIC). An F-4500 FL fluorescence spectrophotometer (Shimadzu, Kyoto, Japan) was used to monitor fluorescence (excitation 485 nm, emission 520 nm).

The next experiment deals with plasmid DNA (pHIS2). The experiment is described as follows: DNA-binding gel retardation assay. The note with it: plasmid pHIS2 145 μg/mL, 37 °C, 1 h, 1% agarose gel; Figure 5. How it is done:
We evaluated the DNA-binding ability of F2 and F2 (C4S) monomeric peptides using gel retardation experiments. The concentration of plasmid DNA (pHIS2) was fixed at 145 μg/mL. The peptide was serially diluted in a binding buffer consisting of 10 mM Tris-HCl (pH 8.0), 5% glucose, 50 μg/mL BSA, 1 mM EDTA, and 20 mM KCl. This solution was then mixed with the DNA and incubated at 37 °C for 1 h. After incubation, the DNA–peptide mixture was stained with DNA gel loading dye. The samples were analyzed using 1% agarose gel electrophoresis in 0.5× TAE buffer. Plasmid bands were detected with a UV illuminator (Bio-Rad, Hercules, CA, USA).

Experiment [2] has as its system S. aureus cytoplasmic membrane. Briefly: Membrane depolarization assay, DiSC3-(5) dye. The class given is cell-based, Staphylococcus aureus. To be noted: intact S. aureus; 32 µM F2, 4 µM melittin, 16 µM buforin-2; peptide added after 300 s; Figure 2. How it is done:
The cytoplasmic membrane depolarization activity of the peptides was assessed using the membrane-potential-sensitive dye DiSC3-(5), following methodologies previously described in the literature. Staphylococcus aureus was cultured in Luria–Bertani (LB) broth at 37 °C until reaching an optical density (O.D.) at 600 nm of 0.3–0.4, indicative of mid-logarithmic phase growth. The cells were then washed with a buffer containing 20 mM glucose and 5 mM HEPES, and the cell suspension was diluted to an O.D. 600 of 0.05 in the same buffer. Potassium chloride (KCl) was added to achieve a final concentration of 100 mM to equilibrate potassium ion levels. The concentrations used for each peptide in our membrane depolarization assays were based on their respective MICs: 32 µM for F2, 4 µM for Melittin, and 16 µM for Buferin-2.
Fluorescence was monitored using an F-4500 FL fluorescence spectrophotometer (Shimadzu, Kyoto, Japan) with excitation and emission wavelengths set at 622 nm and 670 nm, respectively. Melittin, known for its membrane-disrupting properties, served as a positive control, while buforin-2, which translocates across membranes without causing depolarization, acted as a negative control. Both melittin and buforin-2 were tested at concentrations twice their minimal inhibitory concentration (MIC) levels.

Experiment [3] addresses F2 (rattusin fragment, residues 12-18, dimeric hairpin loop region) (rat). The experiment is described as follows: RP-HPLC; monomeric F2 (before disulfide bonding) incubated in MIC buffer; formation of the disulfide-bonded dimer monitored by RP-HPLC.

In brackets after ≈: the same amount, converted by molar mass. Positions of bridges follow the written chain, without caps; N, C: chain ends. Residues, ends and D or L forms follow the SMILES beside them. Chains are numbered I, II in the order given.

What is called MIC is the smallest concentration in the dilution series that meets the test's criterion for growth inhibition. What is called stoichiometry N is the number of molecules, sites or subunits per partner or assembly.

For `CC(C)[C@H](NC(=O)[C@H](CCCNC(=N)N)NC(=O)[C@@H](N)CCCNC(=N)N)C(=O)N[C@@H](CSSC[C@H](NC(=O)[C@@H](NC(=O)[C@H](CCCNC(=N)N)NC(=O)[C@@H](N)CCCNC(=N)N)C(C)C)C(=O)N[C@@H](CCCNC(=N)N)C(=O)N[C@@H](CC(N)=O)C(=O)N[C@H](C(N)=O)[C@@H](C)O)C(=O)N[C@@H](CCCNC(=N)N)C(=O)N[C@@H](CC(N)=O)C(=O)N[C@H](C(N)=O)[C@@H](C)O` [F2] (I: H-RRVCRNT-NH2 / II: H-RRVCRNT-NH2; disulfide I:4-II:4; N-terminus assumed), the minimum inhibitory concentration (MIC) in [1] is 15 µg/mL (≈ 8.31 µM); with Escherichia coli it was 15 µg/mL (≈ 8.31 µM); in the experiment on Bacillus subtilis, 29 µg/mL (≈ 16.1 µM); with Pseudomonas aeruginosa, 15 µg/mL (≈ 8.31 µM); against Salmonella typhimurium, 15 µg/mL (≈ 8.31 µM); against bacterial strains it was 15 µg/mL (≈ 8.31 µM). Besides, the MIC against Staphylococcus aureus was 58 µg/mL (≈ 32.1 µM); against MRSA CCARM 3095, 58 µg/mL (≈ 32.1 µM); against MRSA CCARM 3089, 58 µg/mL (≈ 32.1 µM); in the experiment with MRSA CCARM 3090, 116 µg/mL (≈ 64.3 µM). Further, the “ONPG hydrolysis (absorbance at 405 nm)” value in the experiment with E. coli ML-35 is recorded as “did not alter the absorbance”. The “SYTOX Green uptake (fluorescence intensity)” value in the experiment with S. aureus cell membranes is “did not show a similar increase in fluorescence intensity”. Also, in the experiment on plasmid DNA (pHIS2), the “peptide concentration giving DNA band retardation” value amounted to 4 µM. Besides, the “cytoplasmic membrane depolarization (DiSC3-(5) fluorescence)” value in experiment [2] was “did not cause any membrane depolarization”.

Regarding “F2 (rattusin fragment, residues 12-18, dimeric hairpin loop region) (peptide)”, the stoichiometry N in experiment [3] was 2.

The record behind these values is paper PMC11201828, “A Novel Dimeric Short Peptide Derived from α-Defensin-Related Rattusin with Improved Antimicrobial and DNA-Binding Activities” (Biomolecules, 2024).
